Measurements reported in PubChem BioAssay (NCI).
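All cell lines were grown in 96-well plates and treated with compound for 48 hours. Abbreviation: GI50, concentration required for 50% inhibition of growth. TGI marks complete inhibition of growth.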

What was measured:
Test in all cases: growth of human tumour cells (NCI), 48 h
786-0 renal = system: 786-0 renal
A498 renal = system: A498 renal
A549 NSCLC = system: A549 NSCLC
ACHN renal = system: ACHN renal
BT-549 breast = system: BT-549 breast
CAKI-1 renal = system: CAKI-1 renal
CCRF-CEM leukemia = system: CCRF-CEM leukemia
COLO 205 colon = system: COLO 205 colon
DU-145 prostate = system: DU-145 prostate
EKVX NSCLC = system: EKVX NSCLC
HCC-2998 colon = system: HCC-2998 colon
HCT-116 colon = system: HCT-116 colon
HCT-15 colon = system: HCT-15 colon
HL-60(TB) leukemia = system: HL-60(TB) leukemia
HOP-62 NSCLC = system: HOP-62 NSCLC
HOP-92 NSCLC = system: HOP-92 NSCLC
HS 578T breast = system: HS 578T breast
HT29 colon = system: HT29 colon
IGROV1 ovarian = system: IGROV1 ovarian
K-562 leukemia = system: K-562 leukemia
KM12 colon = system: KM12 colon
LOX IMVI melanoma = system: LOX IMVI melanoma
M14 melanoma = system: M14 melanoma
MALME-3M melanoma = system: MALME-3M melanoma
MCF7 breast = system: MCF7 breast
MDA-MB-231 breast = system: MDA-MB-231 breast
MDA-MB-435 = system: MDA-MB-435
MOLT-4 leukemia = system: MOLT-4 leukemia
NCI-H226 lung = system: NCI-H226 lung
NCI-H23 lung = system: NCI-H23 lung
NCI-H460 lung = system: NCI-H460 lung
NCI-H522 lung = system: NCI-H522 lung
NCI/ADR-RES ovarian = system: NCI/ADR-RES ovarian
OVCAR-3 ovarian = system: OVCAR-3 ovarian
OVCAR-4 ovarian = system: OVCAR-4 ovarian
OVCAR-5 ovarian = system: OVCAR-5 ovarian
OVCAR-8 ovarian = system: OVCAR-8 ovarian
PC-3 prostate = system: PC-3 prostate
RPMI-8226 leukemia = system: RPMI-8226 leukemia
RXF 393 renal = system: RXF 393 renal
SF-268 CNS = system: SF-268 CNS
SF-295 CNS = system: SF-295 CNS
SF-539 CNS = system: SF-539 CNS
SK-MEL-2 melanoma = system: SK-MEL-2 melanoma
SK-MEL-28 melanoma = system: SK-MEL-28 melanoma
SK-MEL-5 melanoma = system: SK-MEL-5 melanoma
SK-OV-3 ovarian = system: SK-OV-3 ovarian
SN12C renal = system: SN12C renal
SNB-19 CNS = system: SNB-19 CNS
SNB-75 CNS = system: SNB-75 CNS
SR leukemia = system: SR leukemia
SW-620 colon = system: SW-620 colon
T-47D breast = system: T-47D breast
TK-10 renal = system: TK-10 renal
U251 CNS = system: U251 CNS
UACC-257 melanoma = system: UACC-257 melanoma
UACC-62 melanoma = system: UACC-62 melanoma
UO-31 renal = system: UO-31 renal

Which GI50 (786-0 renal) does the source give for `CCCC(CCC)C(=O)OCC1(CO)C/C(=C\c2ccc(F)cc2)C(=O)O1` (stereo unspecified) here?
Its GI50 is 10.5 µM.

And the TGI (786-0 renal)?
Its TGI is 23.8 µM.

What about the GI50 (A498 renal) of the same compound?
Its GI50 is 1.46 µM.

What about the TGI (A498 renal) of the same compound?
Its TGI is 12.4 µM.

What about the GI50 (A549 NSCLC) of the same compound?
Its GI50 is 3.66 µM.

And the TGI (A549 NSCLC)?
The TGI was 21.5 µM.

What about the GI50 (ACHN renal) of the same compound?
The GI50 was 9.32 µM.

And the TGI (ACHN renal)?
Its TGI is 23.4 µM.

What about the GI50 (BT-549 breast) of the same compound?
Its GI50 is 7.25 µM.

What about the TGI (BT-549 breast) of the same compound?
The TGI was 22.6 µM.

What about the GI50 (CAKI-1 renal) of the same compound?
The GI50 was 7.28 µM.

And the TGI (CAKI-1 renal)?
The TGI was 27.4 µM.

And the GI50 (CCRF-CEM leukemia)?
The GI50 was 0.0233 µM.

What about the TGI (CCRF-CEM leukemia) of the same compound?
Its TGI is 0.107 µM.

And the GI50 (COLO 205 colon)?
The GI50 was 0.545 µM.

And the TGI (COLO 205 colon)?
The TGI was 8.74 µM.

And the GI50 (DU-145 prostate)?
The GI50 was 12.7 µM.

What about the TGI (DU-145 prostate) of the same compound?
Its TGI is 25.7 µM.

And the GI50 (EKVX NSCLC)?
The GI50 was 7.67 µM.

What about the TGI (EKVX NSCLC) of the same compound?
The TGI was 34.3 µM.

What about the GI50 (HCC-2998 colon) of the same compound?
Its GI50 is 6.73 µM.

And the TGI (HCC-2998 colon)?
Its TGI is 19.8 µM.

And the GI50 (HCT-116 colon)?
The GI50 was 13.6 µM.

And the TGI (HCT-116 colon)?
The TGI was 27.1 µM.

And the GI50 (HCT-15 colon)?
Its GI50 is 12.5 µM.

What about the TGI (HCT-15 colon) of the same compound?
Its TGI is 26.2 µM.

And the GI50 (HL-60(TB) leukemia)?
Its GI50 is 0.907 µM.

And the TGI (HL-60(TB) leukemia)?
Its TGI is 8.36 µM.

And the GI50 (HOP-62 NSCLC)?
Its GI50 is 4.11 µM.

What about the TGI (HOP-62 NSCLC) of the same compound?
The TGI was 17 µM.

And the GI50 (HOP-92 NSCLC)?
Its GI50 is 0.487 µM.

What about the TGI (HOP-92 NSCLC) of the same compound?
Its TGI is 12.5 µM.

What about the GI50 (HS 578T breast) of the same compound?
The GI50 was 14.3 µM.

And the TGI (HS 578T breast)?
Its TGI is 43.5 µM.

And the GI50 (HT29 colon)?
Its GI50 is 13.6 µM.

And the TGI (HT29 colon)?
Its TGI is 27.3 µM.

And the GI50 (IGROV1 ovarian)?
The GI50 was 15.5 µM.

What about the TGI (IGROV1 ovarian) of the same compound?
The TGI was 32.7 µM.

And the GI50 (K-562 leukemia)?
Its GI50 is 0.374 µM.

And the TGI (K-562 leukemia)?
Its TGI is 18 µM.

What about the GI50 (KM12 colon) of the same compound?
Its GI50 is 13.9 µM.

What about the TGI (KM12 colon) of the same compound?
The TGI was 27.5 µM.

What about the GI50 (LOX IMVI melanoma) of the same compound?
Its GI50 is 11.2 µM.

And the TGI (LOX IMVI melanoma)?
Its TGI is 24.5 µM.

And the GI50 (M14 melanoma)?
The GI50 was 8.45 µM.

What about the TGI (M14 melanoma) of the same compound?
Its TGI is 24.8 µM.

What about the GI50 (MALME-3M melanoma) of the same compound?
The GI50 was 12.1 µM.

What about the TGI (MALME-3M melanoma) of the same compound?
Its TGI is 27.2 µM.

And the GI50 (MCF7 breast)?
Its GI50 is 15.5 µM.

What about the TGI (MCF7 breast) of the same compound?
The TGI was 31.4 µM.

And the GI50 (MDA-MB-231 breast)?
The GI50 was 6.98 µM.

And the TGI (MDA-MB-231 breast)?
Its TGI is 23.9 µM.

What about the GI50 (MDA-MB-435) of the same compound?
Its GI50 is 2.43 µM.

What about the TGI (MDA-MB-435) of the same compound?
The TGI was 20.9 µM.

What about the GI50 (MOLT-4 leukemia) of the same compound?
The GI50 was 3.54 µM.

And the TGI (MOLT-4 leukemia)?
The TGI was 21.4 µM.

And the GI50 (NCI-H226 lung)?
Its GI50 is 11.7 µM.

And the TGI (NCI-H226 lung)?
The TGI was 32.3 µM.

And the GI50 (NCI-H23 lung)?
Its GI50 is 12.4 µM.

What about the TGI (NCI-H23 lung) of the same compound?
Its TGI is 26.7 µM.

What about the GI50 (NCI-H460 lung) of the same compound?
Its GI50 is 1.94 µM.

What about the TGI (NCI-H460 lung) of the same compound?
Its TGI is 19.6 µM.

And the GI50 (NCI-H522 lung)?
Its GI50 is 14.5 µM.

What about the TGI (NCI-H522 lung) of the same compound?
The TGI was 30.4 µM.

What about the GI50 (NCI/ADR-RES ovarian) of the same compound?
The GI50 was 13.9 µM.

What about the TGI (NCI/ADR-RES ovarian) of the same compound?
The TGI was 33.4 µM.

And the GI50 (OVCAR-3 ovarian)?
Its GI50 is 17.1 µM.

And the TGI (OVCAR-3 ovarian)?
The TGI was 31.2 µM.

And the GI50 (OVCAR-4 ovarian)?
Its GI50 is 13.9 µM.

What about the TGI (OVCAR-4 ovarian) of the same compound?
Its TGI is 28.4 µM.

And the GI50 (OVCAR-5 ovarian)?
Its GI50 is 16.6 µM.

What about the TGI (OVCAR-5 ovarian) of the same compound?
The TGI was 31.4 µM.

What about the GI50 (OVCAR-8 ovarian) of the same compound?
The GI50 was 17.9 µM.

What about the TGI (OVCAR-8 ovarian) of the same compound?
The TGI was 37 µM.

What about the GI50 (PC-3 prostate) of the same compound?
The GI50 was 10.4 µM.

What about the TGI (PC-3 prostate) of the same compound?
Its TGI is 25 µM.

What about the GI50 (RPMI-8226 leukemia) of the same compound?
Its GI50 is 0.845 µM.

What about the TGI (RPMI-8226 leukemia) of the same compound?
Its TGI is 7.15 µM.

And the GI50 (RXF 393 renal)?
Its GI50 is 15.6 µM.

What about the TGI (RXF 393 renal) of the same compound?
Its TGI is 36.6 µM.

And the GI50 (SF-268 CNS)?
The GI50 was 13.2 µM.

And the TGI (SF-268 CNS)?
Its TGI is 26.7 µM.

And the GI50 (SF-295 CNS)?
Its GI50 is 1.99 µM.

And the TGI (SF-295 CNS)?
Its TGI is 17.4 µM.

And the GI50 (SF-539 CNS)?
Its GI50 is 12 µM.

What about the TGI (SF-539 CNS) of the same compound?
Its TGI is 24.4 µM.

What about the GI50 (SK-MEL-2 melanoma) of the same compound?
The GI50 was 17.2 µM.

And the TGI (SK-MEL-2 melanoma)?
The TGI was 34.1 µM.

What about the GI50 (SK-MEL-28 melanoma) of the same compound?
The GI50 was 14.7 µM.

And the TGI (SK-MEL-28 melanoma)?
Its TGI is 28 µM.

What about the GI50 (SK-MEL-5 melanoma) of the same compound?
Its GI50 is 0.829 µM.

What about the TGI (SK-MEL-5 melanoma) of the same compound?
The TGI was 17 µM.

And the GI50 (SK-OV-3 ovarian)?
The GI50 was 19.5 µM.

And the TGI (SK-OV-3 ovarian)?
The TGI was 33.9 µM.

What about the GI50 (SN12C renal) of the same compound?
Its GI50 is 12.4 µM.

And the TGI (SN12C renal)?
The TGI was 26.4 µM.

And the GI50 (SNB-19 CNS)?
Its GI50 is 18.2 µM.

What about the TGI (SNB-19 CNS) of the same compound?
Its TGI is 32.2 µM.

What about the GI50 (SNB-75 CNS) of the same compound?
The GI50 was 7.99 µM.

And the TGI (SNB-75 CNS)?
The TGI was 22.8 µM.

What about the GI50 (SR leukemia) of the same compound?
The GI50 was 6.55 µM.

What about the TGI (SR leukemia) of the same compound?
The TGI was 25.4 µM.

And the GI50 (SW-620 colon)?
Its GI50 is 6.93 µM.

And the TGI (SW-620 colon)?
Its TGI is 20.7 µM.

And the GI50 (T-47D breast)?
The GI50 was 13.2 µM.

What about the TGI (T-47D breast) of the same compound?
The TGI was 30.1 µM.

And the GI50 (TK-10 renal)?
Its GI50 is 6.06 µM.

And the TGI (TK-10 renal)?
Its TGI is 23.6 µM.

And the GI50 (U251 CNS)?
Its GI50 is 8.07 µM.

What about the TGI (U251 CNS) of the same compound?
Its TGI is 23.4 µM.

And the GI50 (UACC-257 melanoma)?
The GI50 was 14.7 µM.

And the TGI (UACC-257 melanoma)?
Its TGI is 28.7 µM.

And the GI50 (UACC-62 melanoma)?
Its GI50 is 8.16 µM.

What about the TGI (UACC-62 melanoma) of the same compound?
The TGI was 23.8 µM.

What about the GI50 (UO-31 renal) of the same compound?
The GI50 was 8.35 µM.

And the TGI (UO-31 renal)?
The TGI was 24.4 µM.
